The text below walks through data of PMC10384675, “Novel Thiazolidine-2,4-dione-trimethoxybenzene-thiazole Hybrids as Human Topoisomerases Inhibitors” (Pharmaceuticals, 2023).

A word on the IC50: it is the concentration needed to halve the response being measured. Broadly, the melting point is the temperature, or range, at which the solid turns liquid.

Series [1] relates to MDA-MB-231 breast cancer cells. Briefly: MTT cell viability assay, MDA-MB-231. It is filed as cell-based. Conditions: Homo sapiens, 72 h. How it is done:
(§1) All of the synthesized compounds (7a–f) were studied to test their anticancer activity toward the estrogen receptor-positive (ER+) MCF-7 and the triple-negative MDA-MB-231 breast cancer cells (ER-, PR- and HER-2/Neu not overexpressed) and A2058 melanoma cells. Cells were incubated for 72 h with different concentrations of the compounds, and then the viability was checked by the MTT assay. […] Moreover, we checked the cytotoxicity of all of the synthesized compounds against the human MCF-10A non-malignant breast epithelial cells and mouse BALB/3T3 embryonic fibroblasts, in order to evaluate their selectivity on cancer cells.
(§2) The used cell lines (breast cancer cell lines MCF-7 and MDA-MB-231, melanoma cell line A2058 and human mammary epithelial cell line MCF-10A) were obtained from American Type Culture Collection (ATCC, Manassas, VA, USA) and cultured as already reported. The mouse BALB/3T3 embryonic fibroblasts were also purchased from American Type Culture Collection (ATCC, Manassas, VA, USA) and cultured in DMEM high glucose supplemented with 10% bovine calf serum (BCS) and 100 U mL^−1 penicillin/streptomycin.
(§3) MTT assay (Sigma Aldrich (St. Louis, MO, USA)) was performed for evaluating the in vitro anticancer activities of the compounds, as previously indicated. Different concentrations (0.1, 1, 10, 25, 50, and 100 μM) of the compounds were employed, with a 72 h endpoint. IC50 values were obtained from the percent (%) of control using GraphPad Prism 9 (GraphPad Software, La Jolla, CA, USA).

Series [2] has as its system human MCF-10A non-malignant breast epithelial cells. Briefly: MTT cytotoxicity assay, MCF-10A. The settings on record: 72 h, normal cells. It is filed as cell-based. The procedure: as §1, §2, §3
On the technique in general: Tetrazolium dyes change colour on reduction, which living cells bring about.

Series [3] concerns A2058 melanoma cells. Briefly: MTT cell viability assay, A2058. The settings on record: Homo sapiens, 72 h. It counts as cell-based. The procedure: as §1, §2, §3
Series [4] concerns mouse BALB/3T3 embryonic fibroblasts. Briefly: MTT cytotoxicity assay, BALB/3T3. It counts as cell-based. Conditions: 72 h, normal cells. How it is done: as §1, §2, §3
Series [5] concerns MCF-7 breast cancer cells. Briefly: MTT cell viability assay, MCF-7. It counts as cell-based, human. Conditions: Homo sapiens, MCF7; MTT, 72 h. How it is done: as §1, §2, §3
The target of series [6] is T1, hTopo II (Homo sapiens, UniProt P11388).
T1 construct: purchased TopoGEN, Port Orange, FL
T1 sequence (P11388 whole entry): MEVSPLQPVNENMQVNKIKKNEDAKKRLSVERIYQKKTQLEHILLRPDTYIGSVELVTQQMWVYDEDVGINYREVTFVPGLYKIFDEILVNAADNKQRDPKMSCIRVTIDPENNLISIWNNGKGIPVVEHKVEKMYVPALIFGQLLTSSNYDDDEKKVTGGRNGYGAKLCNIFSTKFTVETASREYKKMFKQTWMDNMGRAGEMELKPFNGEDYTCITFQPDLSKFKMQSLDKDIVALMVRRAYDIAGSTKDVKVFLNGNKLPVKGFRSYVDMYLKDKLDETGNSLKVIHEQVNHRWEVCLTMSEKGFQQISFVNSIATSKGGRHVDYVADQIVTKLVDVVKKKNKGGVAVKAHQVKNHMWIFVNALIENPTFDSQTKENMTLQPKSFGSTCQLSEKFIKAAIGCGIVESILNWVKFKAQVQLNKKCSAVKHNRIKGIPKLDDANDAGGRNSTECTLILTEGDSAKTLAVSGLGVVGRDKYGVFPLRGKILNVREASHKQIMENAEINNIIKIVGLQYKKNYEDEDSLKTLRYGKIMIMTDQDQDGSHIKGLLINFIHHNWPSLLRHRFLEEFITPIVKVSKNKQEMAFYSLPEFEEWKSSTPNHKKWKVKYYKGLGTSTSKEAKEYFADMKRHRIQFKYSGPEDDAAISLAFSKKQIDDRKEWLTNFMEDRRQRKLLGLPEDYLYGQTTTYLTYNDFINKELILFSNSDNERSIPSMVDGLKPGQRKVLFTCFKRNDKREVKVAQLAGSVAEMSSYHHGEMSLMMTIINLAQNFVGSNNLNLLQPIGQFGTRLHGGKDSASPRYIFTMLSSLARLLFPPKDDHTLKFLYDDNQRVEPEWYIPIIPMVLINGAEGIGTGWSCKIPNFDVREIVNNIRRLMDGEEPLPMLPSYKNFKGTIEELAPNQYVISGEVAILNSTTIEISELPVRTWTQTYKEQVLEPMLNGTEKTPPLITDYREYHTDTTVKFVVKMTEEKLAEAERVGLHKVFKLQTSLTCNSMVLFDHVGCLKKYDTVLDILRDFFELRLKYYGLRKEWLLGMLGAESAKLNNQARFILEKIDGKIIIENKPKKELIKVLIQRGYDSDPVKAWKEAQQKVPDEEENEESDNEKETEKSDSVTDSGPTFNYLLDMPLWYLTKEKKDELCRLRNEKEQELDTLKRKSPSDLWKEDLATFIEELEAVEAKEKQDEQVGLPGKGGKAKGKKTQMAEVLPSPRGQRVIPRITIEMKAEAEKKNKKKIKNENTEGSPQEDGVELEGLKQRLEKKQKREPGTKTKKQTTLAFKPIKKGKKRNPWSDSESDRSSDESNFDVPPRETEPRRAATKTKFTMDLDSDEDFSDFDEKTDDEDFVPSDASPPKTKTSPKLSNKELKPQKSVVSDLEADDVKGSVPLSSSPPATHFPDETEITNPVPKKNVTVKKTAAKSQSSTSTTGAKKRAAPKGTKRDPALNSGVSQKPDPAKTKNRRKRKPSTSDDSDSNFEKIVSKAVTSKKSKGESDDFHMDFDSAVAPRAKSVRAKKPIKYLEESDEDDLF
Briefly: hTopo II decatenation assay. More on the design: key to Topoisomerase Inhibition hTopo II: (+) inhibition; (−) no inhibition; (+/−) partial inhibition. It is filed as biochemical. The settings on record: for hTopo II activity inhibition (in words): kDNA. How it is done:
The linear kDNA (Figure 4a,b, lanes A), decatenated kDNA (Figure 4a,b, lanes B) and the catenated circles of kDNA (Figure 4a,b, lanes C) were used as markers. A parallel experiment was performed using ellipticine as reference molecule.
(§4) hTopo I relaxation assays were performed by incubating the substrate (supercoiled pHOT1) with the recombinant hTopo I (TopoGEN, Port Orange, FL, USA) and compounds, as indicated in the supplier protocol (TopoGEN, Port Orange, FL, USA), with some revisions. hTopo II decatenation assays were conducted by incubating the kinetoplast DNA substrate (kDNA) with the hTopo II (TopoGEN, Port Orange, FL) and studied compounds, as indicated in the supplier procedures (TopoGEN, Port Orange, FL, USA), with some changes as in [80].
Figure 4 hTopo II decatenation assay. […] The same experiment was performed using ellipticine (c). Lane 1, decatenated kDNA marker; lane 2, linear kDNA marker; lane 3, CTRL (DMSO), lanes 4–5, ellipticine 10 and 50 µM, respectively.

Series [7] has as its target T2, hTopo I (Homo sapiens, UniProt P11387).
T2 construct: purchased TopoGEN, Port Orange, FL, USA
T2 sequence (P11387 1-765): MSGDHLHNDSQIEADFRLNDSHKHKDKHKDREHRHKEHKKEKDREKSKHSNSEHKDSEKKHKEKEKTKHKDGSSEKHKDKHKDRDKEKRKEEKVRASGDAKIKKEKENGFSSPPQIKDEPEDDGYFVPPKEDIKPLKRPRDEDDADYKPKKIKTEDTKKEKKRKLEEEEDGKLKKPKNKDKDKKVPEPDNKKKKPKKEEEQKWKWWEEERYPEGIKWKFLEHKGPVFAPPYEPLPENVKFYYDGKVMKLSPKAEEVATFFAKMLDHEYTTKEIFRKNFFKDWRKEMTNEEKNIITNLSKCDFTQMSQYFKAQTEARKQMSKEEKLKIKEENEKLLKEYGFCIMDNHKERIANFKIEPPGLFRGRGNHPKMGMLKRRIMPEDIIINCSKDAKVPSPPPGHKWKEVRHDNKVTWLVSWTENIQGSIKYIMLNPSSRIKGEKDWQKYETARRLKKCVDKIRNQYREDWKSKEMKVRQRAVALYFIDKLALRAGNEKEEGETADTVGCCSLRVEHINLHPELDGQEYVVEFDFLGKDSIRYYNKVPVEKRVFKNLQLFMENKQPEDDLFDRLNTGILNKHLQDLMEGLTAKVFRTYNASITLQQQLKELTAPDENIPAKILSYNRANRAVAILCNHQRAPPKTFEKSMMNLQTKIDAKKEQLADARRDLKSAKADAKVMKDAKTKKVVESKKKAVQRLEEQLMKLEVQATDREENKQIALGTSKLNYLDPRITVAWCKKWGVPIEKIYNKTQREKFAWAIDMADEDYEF
Briefly: hTopo I relaxation assay. It counts as biochemical. The arrangement: key to Topoisomerase Inhibition hTopo I: (+) inhibition; (−) no inhibition; (+/−) partial inhibition. Conditions: for hTopo I activity inhibition (in words): supercoiled pHOT1.
From the text: Thiazoles and their derivatives are extensively recognized as chemical nuclei of great interest for producing molecules with multiple biological properties. In particular, several compounds bearing these heterocycles were studied for their capability to interfere with DNA topoisomerases (Topos), ubiquitous enzymes essential in several key cellular processes. In recent years, these enzymes have become popular targets in cancer therapy; indeed, the topoisomerase inhibitors can induce damage to genome integrity. Consequently, the inhibition of topoisomerases leads to cell death by apoptosis and, thus, is fatal. Thus, we carried out two specific tests in vitro for both of the Topos, namely the hTopo I relaxation and the hTopo II decatenation assays. For the hTopo I relaxation assay, we exposed the enzyme to the most interesting compounds, 7b–7e, at the final concentration of 10 µM for 1 h at 37 °C, using as substrate the supercoiled pHOT1 (see Section 4 Materials and Methods for more details). […] Contrarily, in the CTRL lane, where the hTopo I was exposed to only vehicle (DMSO), several bands due to pHOT1 DNA cleavage were present (Figure 3, lane C). […] In Figure 3, panel B, the hTopo I inhibition results using ellipticine, as reference molecule are shown. […] An electrophoretic mobility shift of the pHOT1 DNA was also noticeable, due to the intercalating properties of ellipticine.
as §4
Figure 3 hTopo I relaxation assay. Plasmid pHOT1, used as substrate, was incubated with hTopo I with or without the studied compounds 7b–7e (10 µM concentration), panel (A), and with or without ellipticine (10 and 50 µM concentration), panel (B). Lane A, relaxed DNA marker; lane B, pHOT1 supercoiled DNA, lane C, CTRL (DMSO), lane D–G, compounds 7b–7e 10 µM, respectively. Lane 1, pHOT1 supercoiled DNA; lane 2, CTRL (DMSO), lanes 3–4, ellipticine 10 and 50 µM, respectively.

Compound `COc1cc(/C=C2\SC(=O)N(CC(=O)Nc3nccs3)C2=O)cc(OC)c1OC` [compound 7a, (Z)-2-(5-(3,4,5-Trimethoxybenzylidene)thiazolidin-2,4-dion-3-yl)-N-(thiazol-2-yl)acetamide] displayed a melting point of 245 to 247 °C. This compound also showed an IC50 in series [1] of 27.5 ± 0.9 µM. Besides, the IC50 in series [2] was greater than 100 µM. For the same compound, the IC50 in series [3] is greater than 100 µM. Further, the IC50 in series [4] was 89.2 ± 1.1 µM. The IC50 in series [5] is greater than 100 µM.

In the case of `COc1cc(/C=C2\SC(=O)N(CC(=O)Nc3nc(-c4ccccc4)cs3)C2=O)cc(OC)c1OC` [compound 7b, (Z)-2-(5-(3,4,5-Trimethoxybenzylidene)thiazolidin-2,4-dion-3-yl)-N-(4-phenylthiazol-2-yl)acetamide], the IC50 in series [1] is 17.9 ± 1.1 µM; in series [2], greater than 100 µM; in series [3], 3.5 ± 1.1 µM; in series [4] it was greater than 100 µM; in series [5], 8.5 ± 1.2 µM. The “Topoisomerase Inhibition hTopo II” value in series [6] (10 µM) and in series [6] (50 µM) was “−” in each case. The “hTopo II activity inhibition (in words)” value in series [6] (50 µM) was “unable to inhibit the hTopo II activity”. For the same compound, the “Topoisomerase Inhibition hTopo I” value in series [7] (10 µM) was “−”. For the same compound, in series [7] (10 µM, 1 h, 37 °C), the “hTopo I activity inhibition (in words)” value is “not able to inhibit the relaxation activity”.

Take `COc1cc(/C=C2\SC(=O)N(CC(=O)Nc3nc(-c4ccc(C)cc4)cs3)C2=O)cc(OC)c1OC` [compound 7c, (Z)-2-(5-(3,4,5-Trimethoxybenzylidene)thiazolidin-2,4-dion-3-yl)-N-(4-(4-methylphenyl)thiazol-2-yl)acetamide]: the IC50 was 32.8 ± 0.6 µM in series [1]; 46.4 ± 1.1 µM in series [2]; 4.8 ± 1 µM in series [3]; greater than 100 µM in series [4]; 19.5 ± 0.6 µM in series [5]. Further, the entries for the “Topoisomerase Inhibition hTopo II” value in series [6] (10 µM) and in series [6] (50 µM) were “−” and “+”, respectively. In addition, the “Topoisomerase Inhibition hTopo I” value in series [7] (10 µM) is on record as “−”. In series [7] (10 µM, 1 h, 37 °C), the “hTopo I activity inhibition (in words)” value is reported as “not able to inhibit the relaxation activity”.

With `COc1cc(/C=C2\SC(=O)N(CC(=O)Nc3nc(-c4ccc(Cl)cc4)cs3)C2=O)cc(OC)c1OC` [compound 7d, (Z)-2-(5-(3,4,5-Trimethoxybenzylidene)thiazolidin-2,4-dion-3-yl)-N-(4-(4-chlorophenyl)thiazol-2-yl)acetamide], the IC50 is 33.4 ± 1 µM in series [1]; greater than 100 µM in series [2]; 6.4 ± 0.9 µM in series [3]; 36.1 ± 1 µM in series [4]; 34.1 ± 0.7 µM in series [5]. Also, the “Topoisomerase Inhibition hTopo II” value is “−” in series [6] (10 µM) and “+” in series [6] (50 µM). The “Topoisomerase Inhibition hTopo I” value in series [7] (10 µM) is “−”. In addition, the “hTopo I activity inhibition (in words)” value in series [7] (10 µM, 1 h, 37 °C) is listed as “not able to inhibit the relaxation activity”.

Consider `COc1cc(/C=C2\SC(=O)N(CC(=O)Nc3nc4ccccc4s3)C2=O)cc(OC)c1OC` [compound 7f, (Z)-2-(5-(3,4,5-Trimethoxybenzylidene)thiazolidin-2,4-dion-3-yl)-N-(benzo[d]thiazol-2-yl)acetamide], for which the IC50 is 50.5 ± 0.8 µM in series [1]; greater than 100 µM in series [2]; 24.6 ± 1.1 µM in series [3]; greater than 100 µM in series [4]; 17.4 ± 1.1 µM in series [5]. Also, the entries for the “Topoisomerase Inhibition hTopo II” value in series [6] (10 µM) and in series [6] (50 µM) were “−” and “+”, respectively. Also, the “Topoisomerase Inhibition hTopo I” value in series [7] (10 µM) is recorded as “+”.

Take `Cc1c2ccncc2c(C)c2c1[nH]c1ccccc12` [ellipticine, reference compound]: the IC50 stood at 1.73 ± 0.4 µM in series [1]; 1.09 ± 0.1 µM in series [2]; 1.33 ± 0.9 µM in series [3]; 0.97 ± 0.1 µM in series [4]; 1.15 ± 0.5 µM in series [5]. For the same compound, the “Topoisomerase Inhibition hTopo II” value in series [6] (10 µM) is “+/−”; in series [6] (50 µM), “+”. In addition, the “hTopo II activity inhibition (in words)” value in series [6] (50 µM) is on record as “totally block”. Further, the “Topoisomerase Inhibition hTopo I” value in series [7] (10 µM) and in series [7] (50 µM) was “+” throughout. Also, the “hTopo I activity inhibition (in words)” value in series [7] (10 µM, 1 h, 37 °C) was “able to block the hTopo I activity”; in series [7] (50 µM) it was “able to block the hTopo I activity”.
